From patent publication US9205139B2, “Immunomodulatory methods and systems for treatment and/or prevention of aneurysms” (priority 2010, dated 2015)
Peptide text beside a SMILES is read from it.

Key:
[1] = test system: atherosclerosis; details: WO 02/080954, Table B; cited from earlier work
[2] = Circulating cholesterol and body weight of immunized mice; type: in vivo; details: n = 10; mean±Std
Description: Immunization protocols Male apoE (−/−) mice (Jackson Laboratories) were housed in an animal facility accredited by the American Association of Accreditation of Laboratory Animal Care and kept on a 12-hour day/night cycle with unrestricted access to water and food. The Institutional Animal Care and Use Committee of Cedars-Sinai Medical Center approved the experimental protocols. […] Mice, maintained on normal chow diet, received subcutaneous primary immunization in the dorsal area between scapulas at 6-7 weeks of age, followed by a booster at 9 and 12 weeks of age. One week after last booster, diet was switched to high cholesterol chow (TD 88137, Harlan-Teklad) and continued until euthanasia at the age of 25 weeks. Separate groups of mice receiving PBS or cBSA/alum at the same immunization time-points served as control. Some mice were sacrificed at 8 or 13 weeks of age to assess immune response against p210.
The vaccine preparation consisted of the p210 peptide (Euro-Diagnostica AB, Sweden) conjugated to cationic bovine serum albumin (cBSA) as carrier using a method described previously^3;4. Alum was used as adjuvant and mixed with peptide/cBSA conjugated with 1:1 ratio in volume. Peptide conjugation was performed on the day of immunization and freshly mixed with alum just prior to each immunization. […]

Row | Molecule | percentage reduction of atherosclerosis [1] | Body weight [2]
1 | HTFLI YITEL LKKLQ STTVM (HTFLIYITELLKKLQSTTVM) [p301] | 55.2% | –
2 | EEEML ENVSL VCPKD ATRFK [p1] | 31% | –
3 | IEIGL EGKGF EPTLE ALFGK (IEIGLEGKGFEPTLEALFGK) [p45] | 47.4% | –
4 | CC(C)C[C@H](NC(=O)[C@H](CC(=O)O)NC(=O)[C@H](Cc1ccccc1)NC(=O)[C@H](CO)NC(=O)[C@H](CCC(N)=O)NC(=O)[C@H](CCCCN)NC(=O)[C@@H](NC(=O)[C@@H](NC(=O)[C@@H](N)CCCCN)[C@@H](C)O)[C@@H](C)O)C(=O)N[C@@H](CO)C(=O)N[C@H](C(=O)N[C@@H](CCCCN)C(=O)N[C@@H](C)C(=O)N[C@@H](CCC(N)=O)C(=O)N[C@@H](Cc1ccc(O)cc1)C(=O)N[C@@H](CCCCN)C(=O)N[C@@H](CCCCN)C(=O)N[C@@H](CC(N)=O)C(=O)N[C@@H](CCCCN)C(=O)N[C@@H](Cc1c[nH]cn1)C(=O)O)C(C)C [p210, KTTKQ SFDLS VKAQY KKNKH] (H-KTTKQSFDLSVKAQYKKNKH-OH) | – | without affecting
